Assay results published in patent publication US8765096B2, “Methods and compositions for treating and diagnosing kidney disease” (Endocyte, Inc, priority 2007, dated 2014).
Entries after “also recorded” stand apart in the source; their conditions may differ.

Key:
[1] = biological target: folate receptor (Homo sapiens, UniProt P15328); conditions: KB cells, 1 hour at 37° C., 100 nM 3H-folic acid, increasing competitor concentrations; folic acid = 1.0
[2] = tested on: KB cells; test: Cell viability in KB cells; conditions: 2, 10, and 50 nM, at 24 hours

folate receptor, sequence (P15328 25-234): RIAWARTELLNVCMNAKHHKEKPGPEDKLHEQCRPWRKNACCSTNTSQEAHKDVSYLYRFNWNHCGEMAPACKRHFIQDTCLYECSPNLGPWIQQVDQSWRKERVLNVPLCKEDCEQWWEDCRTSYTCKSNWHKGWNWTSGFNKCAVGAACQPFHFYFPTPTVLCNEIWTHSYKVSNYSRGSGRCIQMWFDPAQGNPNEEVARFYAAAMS

## CO[C@H]1C[C@@H]2CC[C@@H](C)[C@@](O)(O2)C(=O)C(=O)N2CCCC[C@H]2C(=O)O[C@H]([C@H](C)C[C@@H]2CC[C@@H](O)[C@H](OC)C2)CC(=O)[C@H](C)/C=C(\C)[C@@H](OC(=O)OCCSSC[C@H](NC(=O)[C@H](CC(=O)O)NC(=O)[C@H](CC(=O)O)NC(=O)[C@H](CCCNC(=N)N)NC(=O)[C@H](CC(=O)O)NC(=O)CC[C@H](NC(=O)c2ccc(NCc3cnc4nc(N)[nH]c(=O)c4n3)cc2)C(=O)O)C(=O)O)[C@@H](OC)C(=O)[C@H](C)C[C@H](C)/C=C/C=C/C=C/1C [EC0371]
[1]
  relative affinity at the folate receptor: 0.5
[2]
  cytotoxicity (cell viability): Neither rapamycin nor EC0371 is cytotoxic; also recorded: neither rapamycin nor EC0371 was found to be cytotoxic
